Test results taken from patent publication US11555012B2 (Nimbus Artemis, Inc., priority 2018, dated 2023).
Read-outs that look alike come from different tables or passages of the source.

Assays:
HepG2 cells [1] = conditions: Homo sapiens, HepG2, read-out: ACLY HepG2 14C-Pyruvate Assay serum free IC50 Cholesterol (IC50) [μM]
Protocol: ACLY HepG2 ^14C-Pyruvate Incorporation Serum-Free Assay (IC50 Cholesterol and Fatty Acid Synthesis)
Compounds of the present invention were evaluated in a HepG2 ^14C-pyruvate incorporation assay. The protocol below was followed:
(§1) After 48 hours, change medium with fresh growth medium.
(§2) After 18 hours, replaced medium using 0.5 mL fresh medium (5.5 mM Glucose, without FBS, 1% PS, without Pyruvate) containing Compounds or 0.5% DMSO, incubated at 37° C., 5% CO2 for 1 hour.
(§3) Add 3 μci of [14C]-pyruvate per well to the cell samples were incubated at 37° C., 5% CO2 for 5 hours.
Medium was removed and placed into a 15 mL centrifuge tube. Add 0.5 mL of 0.1M NaOH to each well and then transfer the cell lysates into the corresponding 15 mL centrifuge tubes. 1.0 mL of EtOH and 0.17 mL 50% KOH were added to 15 mL tubes containing medium and cell suspensions, then shaking tube gently. […] Saponification 15 mL tubes containing medium and cell suspensions were incubated at 90° C. for 1 hour, then cooled to room temperature. […] Cholesterol Extraction 5 mL of petroleum ether was added per tube to extract Cholesterol, shaken vigorously, centrifuged at 1000 rpm for 5 min, and ˜5 mL of the petroleum ether layer was transferred to a new glass tube (18*180 mm). […] Acidification The samples in 15 mL tube were acidified directly with 1 mL concentrated HCl, make sure pH was below 1. […] Fatty Acids Extraction 5 mL of petroleum ether was added per tube, shaken vigorously, centrifuged at 1000 rpm for 5 min, 5 mL of the petroleum ether layer was transferred to the corresponding glass tube. […] Count The petroleum ether extracts were pooled and evaporated to dryness overnight. The residue from the petroleum ether fractions were resuspended in 500 μL of chloroform-hexane (1:1) containing 420 μg of linoleic acid as a carrier. Add 200 μL of resuspending (chloroform-hexane (1:1) containing 168 μg of linoleic acid) to 2 mL Ultima Gold™, after 30 min, count on a scintillation counter.

ACL [2] = molecular target: T1, ACL (Homo sapiens (Human), UniProt P53396); assay: ACLY-MDH Coupled Assay
Target sequence in this assay (P53396 whole entry, species assumed): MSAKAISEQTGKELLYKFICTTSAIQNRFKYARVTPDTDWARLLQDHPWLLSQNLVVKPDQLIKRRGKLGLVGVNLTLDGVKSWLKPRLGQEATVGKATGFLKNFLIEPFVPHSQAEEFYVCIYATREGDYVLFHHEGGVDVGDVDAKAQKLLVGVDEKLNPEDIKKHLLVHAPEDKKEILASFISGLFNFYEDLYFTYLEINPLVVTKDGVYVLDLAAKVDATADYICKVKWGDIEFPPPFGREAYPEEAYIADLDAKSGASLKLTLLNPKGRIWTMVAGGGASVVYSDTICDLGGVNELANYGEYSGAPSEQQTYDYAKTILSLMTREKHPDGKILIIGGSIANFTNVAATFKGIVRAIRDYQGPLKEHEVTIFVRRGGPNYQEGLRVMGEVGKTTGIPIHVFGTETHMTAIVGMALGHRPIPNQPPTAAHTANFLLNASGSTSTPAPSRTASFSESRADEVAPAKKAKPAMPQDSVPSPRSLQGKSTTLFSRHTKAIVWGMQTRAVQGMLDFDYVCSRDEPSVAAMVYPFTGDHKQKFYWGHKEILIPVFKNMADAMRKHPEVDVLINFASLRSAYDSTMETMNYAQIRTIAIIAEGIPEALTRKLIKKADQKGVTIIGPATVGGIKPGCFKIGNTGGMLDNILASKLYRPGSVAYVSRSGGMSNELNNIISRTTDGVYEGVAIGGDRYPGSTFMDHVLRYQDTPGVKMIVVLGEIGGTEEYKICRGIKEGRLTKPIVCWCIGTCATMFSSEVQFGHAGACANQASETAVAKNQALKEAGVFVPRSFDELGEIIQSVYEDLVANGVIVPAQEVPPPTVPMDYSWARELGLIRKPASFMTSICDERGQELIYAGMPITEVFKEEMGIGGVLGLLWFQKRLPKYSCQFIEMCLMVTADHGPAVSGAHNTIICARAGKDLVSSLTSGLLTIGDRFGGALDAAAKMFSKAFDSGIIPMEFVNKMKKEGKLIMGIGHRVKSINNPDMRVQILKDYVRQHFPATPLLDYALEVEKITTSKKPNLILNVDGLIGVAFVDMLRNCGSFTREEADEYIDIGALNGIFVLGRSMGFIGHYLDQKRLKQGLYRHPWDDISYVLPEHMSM
Protocol: Compounds of the present invention were evaluated in an ACLY Coupled Assay.
The assay protocol for the Coupled Assay (below) was followed:
b) Add 1 μL cpds to 96 assay plate, Test cpd conc: 100/30/10 μM top dose, 3 folds dilution, 10+0+control (control: buffer without ACL+DMSO) points, 1000 rpm for 1 min, incubation at 25° C. for 60 min

HepG2 cells [3] = conditions: Homo sapiens, HepG2, read-out: ACLY HepG2 14C-Pyruvate Assay serum free IC50 FA (IC50) [μM]
Protocol: ACLY HepG2 ^14C-Pyruvate Incorporation Serum-Free Assay (IC50 Fatty
The protocol of the assay (below) was followed:
as §1, §2, §3
Medium was removed and placed into a 15 mL centrifuge tube. Add 0.5 mL of 0.1M NaOH to each well and then transfer the cell lysates into the corresponding 15 mL centrifuge tubes. 1.0 mL of EtOH and 0.17 mL 50% KOH were added to 15 mL tubes containing medium and cell suspensions, then shaking tube gently. […] Saponification 15 mL tubes containing medium and cell suspensions were incubated at 90° C. for 1 hour, then cooled to room temperature. […] Cholesterol Extraction 5 mL of petroleum ether was added per tube to extract Cholesterol, shaken vigorously, centrifuged at 1000 rpm for 5 min, and ˜5 mL of the petroleum ether layer was transferred to a new glass tube (18*180 mm). […] Acidification The samples in 15 mL tube were acidified directly with 1 mL concentrated HCl, make sure pH was below 1. […] Fatty Acids Extraction 5 mL of petroleum ether was added per tube, shaken vigorously, centrifuged at 1000 rpm for 5 min, 5 mL of the petroleum ether layer was transferred to the corresponding glass tube. […] Repeat the Step 8 10. Count The petroleum ether extracts were pooled and evaporated to dryness overnight. The residue from the petroleum ether fractions were resuspended in 500 μL of chloroform-hexane (1:1) containing 420 μg of linoleic acid as a carrier. Add 200 μL of resuspending (chloroform-hexane (1:1) containing 168 μg of linoleic acid) to 2 mL Ultima Gold™, after 30 min, count on a scintillation counter.

ACL [4] = molecular target: T1, ACL; assay: ADP-Glo Assay
Target sequence in this assay (P53396 other isoform, or with tags, fused parts or gaps isoform P53396-2): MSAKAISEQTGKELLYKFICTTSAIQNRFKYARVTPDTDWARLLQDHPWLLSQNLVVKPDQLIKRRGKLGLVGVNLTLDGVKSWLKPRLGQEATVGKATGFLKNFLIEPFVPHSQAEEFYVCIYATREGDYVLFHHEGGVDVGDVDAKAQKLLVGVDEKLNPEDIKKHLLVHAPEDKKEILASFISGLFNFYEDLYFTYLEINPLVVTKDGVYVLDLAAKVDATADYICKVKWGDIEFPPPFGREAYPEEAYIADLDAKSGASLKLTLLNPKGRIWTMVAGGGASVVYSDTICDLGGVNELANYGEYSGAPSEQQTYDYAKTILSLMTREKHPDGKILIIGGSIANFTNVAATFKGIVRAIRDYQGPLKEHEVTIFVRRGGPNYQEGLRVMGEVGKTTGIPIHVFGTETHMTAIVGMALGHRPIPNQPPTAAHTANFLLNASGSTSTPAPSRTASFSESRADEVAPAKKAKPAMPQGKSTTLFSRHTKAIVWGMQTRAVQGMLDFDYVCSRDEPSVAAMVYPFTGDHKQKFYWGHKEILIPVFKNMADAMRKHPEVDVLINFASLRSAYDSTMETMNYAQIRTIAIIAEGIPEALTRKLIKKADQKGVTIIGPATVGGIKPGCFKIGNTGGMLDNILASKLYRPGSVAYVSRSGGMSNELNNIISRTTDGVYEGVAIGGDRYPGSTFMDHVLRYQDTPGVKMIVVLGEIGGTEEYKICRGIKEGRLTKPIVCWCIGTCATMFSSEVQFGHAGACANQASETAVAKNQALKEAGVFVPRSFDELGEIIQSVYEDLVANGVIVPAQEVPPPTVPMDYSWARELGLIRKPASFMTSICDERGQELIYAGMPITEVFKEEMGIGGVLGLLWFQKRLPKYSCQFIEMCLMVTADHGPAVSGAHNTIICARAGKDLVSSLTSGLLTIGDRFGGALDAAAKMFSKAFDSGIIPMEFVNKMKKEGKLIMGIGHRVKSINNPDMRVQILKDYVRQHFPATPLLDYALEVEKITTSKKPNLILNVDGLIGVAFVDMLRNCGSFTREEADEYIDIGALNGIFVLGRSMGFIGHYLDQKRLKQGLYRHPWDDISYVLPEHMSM

[5] = read-out: ACL-ADP-Glo (IC50), 3 nM ACL, 15 μM ATP, 3 μM CoA, 300 μM Citrate
[6] = read-out: ACL-MDH Coupled Assay (IC50), 8 nM ACL, 60 μM CoA Na2, 85 μM Citrate, 250 μM ATP, 250 μM NADH

IC50 (HepG2 cells [1]) [µM]	IC50 (ACL [2]) [nM]	IC50 (HepG2 cells [3]) [µM]	IC50 (ACL [4]) [nM]	IC50 (ACL [4]; [5]) [nM]	IC50 (ACL [2]; [6]) [nM]	Structure (SMILES)
1 to 5	50 to 500	1 to 10	50 to 500			COc1ccc(-c2ccccc2)cc1NS(=O)(=O)c1c(C)c(Cl)cc(Cl)c1O [I-1, 3,5-dichloro-2-hydroxy-N-(4-methoxy-[1,1′-biphenyl]-3-yl)-6-methylbenzenesulfonamide]
1 to 5	50 to 500	> 10	50 to 500			COc1ccc(-c2ccc(F)cc2)cc1NS(=O)(=O)c1cc(Cl)cc(Cl)c1O [I-6, 3,5-dichloro-N-(4′-fluoro-4-methoxy-[1,1′-biphenyl]-3-yl)-2-hydroxybenzenesulfonamide]
1 to 5	50 to 500	1 to 10	50 to 500			COc1ccc(-c2cccs2)cc1NS(=O)(=O)c1cc(Cl)cc(Cl)c1O [I-9, 3,5-dichloro-2-hydroxy-N-(2-methoxy-5-(thiophen-2-yl)phenyl)benzenesulfonamide]
1 to 5	500 to 30000	1 to 10	500 to 20000			O=S(=O)(Nc1ccccc1OCc1ccccc1)c1cc(Cl)cc(Cl)c1O [I-15, N-(2-(benzyloxy)phenyl)-3,5-dichloro-2-hydroxybenzenesulfonamide]
1 to 5	500 to 30000	1 to 10	500 to 20000			O=S(=O)(NC(c1ccccc1)c1ccccc1)c1cc(Cl)cc(Cl)c1O [I-16, N-benzhydry1-3,5-dichloro-2-hydroxybenzenesulfonamide]
1 to 5	50 to 500	1 to 10	50 to 500			COc1ccc(-c2ccccc2)cc1NS(=O)(=O)c1cc(Br)cc(Cl)c1O [I-21, 5-bromo-3-chloro-2-hydroxy-N-(2-methoxy-5-phenylphenyl)benzene-1-sulfonamide]
1 to 5	< 50	1 to 10	50 to 500			O=S(=O)(Nc1cc(-c2ccccc2)ccc1F)c1cc(Cl)cc(Br)c1O [I-23, 3-bromo-5-chloro-N-(4-fluoro-[1,1′-biphenyl]-3-yl)-2-hydroxybenzenesulfonamide]
1 to 5	500 to 30000	> 10	50 to 500			O=S(=O)(Nc1cc(-c2ccccc2)ccc1F)c1cccc(Cl)c1O [I-33, 3-chloro-N-(4-fluoro-[1,1′-biphenyl]-3-yl)-2-hydroxybenzenesulfonamide]
1 to 5	< 50	> 10	50 to 500			O=S(=O)(Nc1cc(-c2ccccc2)ccc1F)c1cc(Br)cc(Cl)c1O [I-34, 5-bromo-3-chloro-N-(2-fluoro-5-phenylphenyl)-2-hydroxybenzene-1-sulfonamide]
	500 to 30000		500 to 20000			O=C(O)c1ccc(-c2ccccc2)cc1NS(=O)(=O)c1cc(Cl)c[nH]c1=O [I-350, 3-((5-chloro-2-oxo-1,2-dihydropyridine)-3-sulfonamido)-[1,1′-biphenyl]-4-carboxylic acid]
	> 30000		50 to 500			O=S(=O)(Nc1ccoc1)c1cc(Cl)cc(Cl)c1 [I-368, 3,5-dichloro-N-(furan-3-yl)benzenesulfonamide]
				< 50	< 50	COc1ccc(-c2cc3ccccc3s2)cc1NS(=O)(=O)c1cc(C(=O)N2CCC2)cc(Cl)c1O [I-503, 5-(azetidine-1-carbonyl)-N-(5-(benzo[b]thiophen-2-yl)-2-methoxyphenyl)-3-chloro-2-hydroxybenzenesulfonamide]
				< 50	< 50	CCOC(=O)c1cc(Cl)c(O)c(S(=O)(=O)Nc2cc(-c3cc4ccccc4s3)c(F)cc2F)c1 [I-505, ethyl 3-(N-(5-(benzo[b]thiophen-2-yl)-2,4-difluorophenyl)sulfamoyl)-5-chloro-4-hydroxybenzoate]
	50 to 500		50 to 500			O=S(=O)(Nc1cc(-c2ccccc2)ccc1OC(F)(F)F)c1cc(Cl)cc(Cl)c1O [I-509, 3,5-dichloro-2-hydroxy-N-(4-(trifluoromethoxy)-[1,1′-biphenyl]-3-yl)benzenesulfonamide]
	500 to 30000		500 to 20000			COc1cc(F)c(-c2cc3ccccc3s2)cc1NS(=O)(=O)c1cc(C(=O)O)cc(Cl)c1O [I-510]
	500 to 30000		500 to 20000			CC#Cc1cc(Cl)ccc1NS(=O)(=O)c1cc(Br)cc(Cl)c1O [I-512]

The next lines start with the compound.

Structure (SMILES)	IC50 (HepG2 cells [1]) [µM]	IC50 (ACL [2]) [nM]	IC50 (HepG2 cells [3]) [µM]	IC50 (ACL [4]) [nM]	IC50 (ACL [4]; [5]) [nM]	IC50 (ACL [2]; [6]) [nM]
COc1cc(-c2ccccc2)ccc1NS(=O)(=O)c1cc(Cl)cc(Cl)c1O [I-13, 3,5-dichloro-2-hydroxy-N-(3-methoxy-[1,1′-biphenyl]-4-yl)benzenesulfonamide]	1 to 5	500 to 30000	1 to 10	500 to 20000		
COc1ccc(-c2ccccc2)cc1NS(=O)(=O)c1cc(Cl)cc(Br)c1O [I-20, 3-bromo-5-chloro-2-hydroxy-N-(2-methoxy-5-phenylphenyl)benzene-1-sulfonamide]	1 to 5	< 50	1 to 10	50 to 500		
N#Cc1cc(Cl)c(O)c(S(=O)(=O)Nc2cc(-c3ccccc3)ccc2F)c1 [I-31, 3-chloro-5-cyano-N-(4-fluoro-[1,1′-biphenyl]-3-yl)-2-hydroxybenzenesulfonamide]	1 to 5	50 to 500	> 10		< 50	
O=S(=O)(c1cc(Cl)cc(Br)c1O)N(Cc1ccccc1)c1cc(-c2ccccc2)ccc1F [I-36, N-benzyl-3-bromo-5-chloro-N-(4-fluoro-[1,1′-biphenyl]-3-yl)-2-hydroxybenzenesulfonamide]	1 to 5	500 to 30000	1 to 10	500 to 20000		
O=S(=O)(Nc1cc(-c2ccccc2)c(F)cc1F)c1cc(Cl)cc(Cl)c1O [I-41, 3,5-dichloro-N-(2,4-difluoro-5-phenylphenyl)-2-hydroxybenzene-1-sulfonamide]	1 to 5		> 10		< 50	< 50
COC(=O)c1cc(Cl)c(O)c(S(=O)(=O)Nc2cc(-c3ccccc3)ccc2F)c1 [I-47, Methyl 3-chloro-5-(N-(4-fluoro-[1,1′-biphenyl]-3-yl)sulfamoyl)-4-hydroxybenzoate]	1 to 5		1 to 10		< 50	< 50
COC(=O)c1cc(Cl)c(O)c(S(=O)(=O)Nc2cc(-c3cccnc3)ccc2OC)c1 [I-48, Methyl 3-chloro-4-hydroxy-5-(N-(2-methoxy-5-(pyridin-3-yl)phenyl)sulfamoyl)benzoate]	1 to 5	500 to 30000	> 10	50 to 500		
COc1ccc(-c2ccccc2)cc1NS(=O)(=O)c1cc(-c2ncco2)cc(Cl)c1O [I-59, 3-chloro-2-hydroxy-N-(2-methoxy-5-phenylphenyl)-5-(1,3-oxazol-2-yl)benzene-1-sulfonamide]	1 to 5	50 to 500	> 10	50 to 500		
CN(C)C(=O)c1cc(Cl)c(O)c(S(=O)(=O)Nc2cc(-c3ccccc3)c(F)cc2F)c1 [I-83, 3-chloro-5-[(2,4-difluoro-5-phenylphenyl)sulfamoyl]-4-hydroxy-N,N-dimethylbenzamide]	1 to 5		> 10			
O=c1[nH]cc(C(F)(F)F)cc1S(=O)(=O)Nc1cc(-c2ccccc2)ccc1F [I-355, N-[4-fluoro-[1,1-biphenyl]-3-yl]-2-oxo-5-(trifluoromethyl)-1,2-dihydropyridine-3-sulfonamide]		500 to 30000		50 to 500		
O=C(O)c1ccc(-c2cccs2)cc1NS(=O)(=O)c1cc(Cl)cc(C(F)(F)F)c1 [I-366, 2-((3-chloro-5-(trifluoromethyl)phenyl)sulfonamido)-4-(thiophen-2-yl)benzoic Acid]		50 to 500		50 to 500		
O=c1[nH]cc(Cl)cc1S(=O)(=O)Nc1cc(-c2cc3ccccc3s2)ccc1F [I-367, N-(5-(benzo[b]thiophen-2-yl)-2-fluorophenyl)-5-chloro-2-oxo-1,2-dihydropyridine-3-sulfonamide]		500 to 30000		500 to 20000		
COc1ccc(-c2ccccc2)cc1NS(=O)(=O)c1ccc(-c2nn[nH]n2)cc1 [I-407, N-(2-methoxy-5-phenylphenyl)-4-(2H-1,2,3,4-tetrazol-5-yl)benzene-1-sulfonamide]		> 30000		> 20000		
O=C(O)c1cc(Cl)c(O)c(S(=O)(=O)Nc2cc(-c3cc4ccccc4s3)c(F)cc2OC(F)(F)F)c1 [I-508, 3-(N-(5-(benzo[b]thiophen-2-yl)-4-fluoro-2-(trifluoromethoxy)phenyl)sulfamoyl)-5-chloro-4-hydroxybenzoic Acid]		500 to 30000		50 to 500		
O=C(c1cncs1)N(c1ccc(Cl)cc1)S(=O)(=O)c1cc(Br)cc(Cl)c1O [I-511, N-((5-bromo-3-chloro-2-hydroxyphenyl)sulfonyl)-N-(4-chlorophenyl)thiazole-5-carboxamide]		500 to 30000		500 to 20000		
CCN(c1ccc(Cl)cc1)S(=O)(=O)c1cc(Br)cc(Cl)c1O [I-513, 5-bromo-3-chloro-N-(4-chlorophenyl)-N-ethyl-2-hydroxybenzene Sulfonamide]		500 to 30000		500 to 20000		
O=S(=O)(c1cc(Br)cc(Cl)c1O)N(Cc1cncs1)c1ccc(Cl)cc1 [I-514, 5-bromo-3-chloro-N-(4-chlorophenyl)-2-hydroxy-N-(thiazol-5-ylmethyl)benzenesulfonamide]		500 to 30000		500 to 20000		
O=C(Nc1cc(-c2cc3ccccc3s2)ccc1C(=O)O)c1cc(Cl)cc(Cl)c1 [I-515, 4-(benzo[b]thiophen-2-yl)-2-(3,5-dichlorobenzamido)benzoic Acid]		500 to 30000		500 to 20000		
